Measurements from patent publication EP2719696A1, “NOVEL KINASE INHIBITORS” (Asinex Limited, priority 2011, dated 2012).
Like-named read-outs stand apart in the source and are kept apart here.

Columns and labels:
VEGFR-2 = VEGFR-2 (Homo sapiens, UniProt P35968); assay: Kinase inhibition assay (ELISA); format: biochemical; conditions: 1.5 µM ATP
Description: (§1) To determine the interaction of our compounds with tyrosine kinases: PDGFR-α, cKIT, PDGFR-β, VEGFR-2 we used enzyme-linked immunosorbent assay (ELISA).
(§2) Determination plates preparation: The plates are processed by neutravidine for 2 h at 30°C. After washing thrice with TBS/0.1% Tween-20 and blocking with 1% BSA/TBS for 1 h at room temperature (RT) 96-well microtiter plates were washed thrice with TBS/0.1% Tween-20 again.
(§3) Reaction: After addition test compounds (in DMSO, DMSO final concentration - 5%) to reaction buffer (20 mM HEPES, pH 7.5, 15 mM MgCl2, 3 mM MnCl2, 2 mM DTT, 0.2 mM Na3VO4, 0.005% Triton X-100; PDGFR-α,: 0.05 µg/ml, 0.5 µg/ml Poly(G,T)-biotin; PDGFR-β: 0.05 µg/ml, 1 µg/ml Poly(G,T)-biotin; c-KIT: 0.03 µg/ml, 0.15 µg/ml Poly(G,T)-biotin; VEGFR-2: 0.07 µg/ml, 0.05 µg/ml Poly(G,T)-biotin) and preincubation of reaction for 10 min at RT and intensive agitation, ATP solution (PDGFR-α, - 1 µM, PDGFR-β - 0.5 µM, c-KIT - 60 µM, VEGFR-2: - 1.5 µM ATP in reaction buffer per well) was added to initiate reaction. Following incubation of mixture for 1 h at 30°C and intensive agitation the reaction was stopped by stop solution (20 mM HEPES, pH 7.5, 50 mM EDTA).
(§4) Kinase activity determination: The reaction mixture was transferred to determination plate. After mix incubation for 1 h at RT and intensive agitation the plates were washed thrice with TBS/0.1% Tween-20. Following mouse monoclonal 0.05 µg/ml Anti-p-Tyr (PY20) HRP antibodies (Santa Cruz Biotechnology) in PBS/BSA were added for 1 h at RT and intensive agitation. After washing, antibody binding was detected by tetramethylbenzidine (TMB) color development (Sigma). Measurement of A450 nm was carried out after addition of H2SO4

cKIT = cKIT (Homo sapiens, UniProt P10721); assay: Kinase inhibition assay (ELISA); format: biochemical; conditions: 60 µM ATP
Description: as §1, §2, §3, §4

PDGFR-α = PDGFR-α (Homo sapiens, UniProt P16234); assay: Kinase inhibition assay (ELISA); format: biochemical; conditions: 1 µM ATP
Description: as §1, §2, §3, §4

A375 = assay: MTT proliferation / cytotoxicity assay; format: cell-based, human
Description: (§5) Cell culture. The human cancer cell lines A172, A375, A2780 and U251 were purchased from the American Type Culture Collection. All cells were routinely maintained in DMEM containing 10% fetal bovine serum (Omega Scientific), at 37°C in 5% C02.
(§6) Proliferation assay Inhibition of cell A172, A375, A2780 and U251 cell proliferation was assessed by a MTT assay (MTT = Thiazolyl Blue Tetrazolium Bromide) . Cells were inoculated into 96-well microtiter plates containing 0.5% fetal calf serum and incubated at 37°C, 5% CO2, 95% air, and 100% relative humidity for 24 h prior to addition of testing compounds. Following compounds addition, the plates were incubated for an additional 72 h before processing to measure the cell population. Each compound was tested at eight different concentrations in triplicate, as was a control sample. Growth inhibition of 50% (IC50) is calculated by analysis of the data in Prizm3.4 software.
(§7) Table 8 lists IC50 values for inhibition of growth of several cancer cell lines, including the glioblastoma cell lines A172 and U251, measured in a MTT cytotoxicity assay. Table 8. Data of cytotoxicity assay (MTT) for several cancer cell lines, IC50 [µM]

U251 = assay: MTT proliferation / cytotoxicity assay; format: cell-based, human; conditions: glioblastoma cell line
Description: as §5, §6, §7

A2780 = assay: MTT proliferation / cytotoxicity assay; format: cell-based, human
Description: as §5, §6, §7

A172 = assay: MTT proliferation / cytotoxicity assay; format: cell-based, human; conditions: glioblastoma cell line
Description: as §5, §6, §7

[1] = In vivo PK study, determination of brain-to-plasma ratio; conditions: mouse, SHK mice, PO dosing 5mg/kg, 20% water solution of HPβCD, read-out: brain-to-plasma concentration ratio
Description: Male SHK mice (22-25 g) were dosed with 5 mg/kg of related compounds as a single injection via oral gavage (formulated in 20% water solution of HPβCD). Blood samples and whole brains were collected from three mice at each of eight collection time points of 0.05, 0.25, 0.5, 1, 2, 4, 8 and 24 h post dose. Plasma was collected from blood samples, and whole brain samples were homogenized in three volumes of water. Both tissues were analyzed for concentrations of related compounds by liquid chromatography-mass spectrometry (LC-MS/MS). Table 9. brain-to-plasma concentration ratios in SHK mice after PO dosing 5mg/kg for several selected examples

cKIT, sequence (P10721 26-976): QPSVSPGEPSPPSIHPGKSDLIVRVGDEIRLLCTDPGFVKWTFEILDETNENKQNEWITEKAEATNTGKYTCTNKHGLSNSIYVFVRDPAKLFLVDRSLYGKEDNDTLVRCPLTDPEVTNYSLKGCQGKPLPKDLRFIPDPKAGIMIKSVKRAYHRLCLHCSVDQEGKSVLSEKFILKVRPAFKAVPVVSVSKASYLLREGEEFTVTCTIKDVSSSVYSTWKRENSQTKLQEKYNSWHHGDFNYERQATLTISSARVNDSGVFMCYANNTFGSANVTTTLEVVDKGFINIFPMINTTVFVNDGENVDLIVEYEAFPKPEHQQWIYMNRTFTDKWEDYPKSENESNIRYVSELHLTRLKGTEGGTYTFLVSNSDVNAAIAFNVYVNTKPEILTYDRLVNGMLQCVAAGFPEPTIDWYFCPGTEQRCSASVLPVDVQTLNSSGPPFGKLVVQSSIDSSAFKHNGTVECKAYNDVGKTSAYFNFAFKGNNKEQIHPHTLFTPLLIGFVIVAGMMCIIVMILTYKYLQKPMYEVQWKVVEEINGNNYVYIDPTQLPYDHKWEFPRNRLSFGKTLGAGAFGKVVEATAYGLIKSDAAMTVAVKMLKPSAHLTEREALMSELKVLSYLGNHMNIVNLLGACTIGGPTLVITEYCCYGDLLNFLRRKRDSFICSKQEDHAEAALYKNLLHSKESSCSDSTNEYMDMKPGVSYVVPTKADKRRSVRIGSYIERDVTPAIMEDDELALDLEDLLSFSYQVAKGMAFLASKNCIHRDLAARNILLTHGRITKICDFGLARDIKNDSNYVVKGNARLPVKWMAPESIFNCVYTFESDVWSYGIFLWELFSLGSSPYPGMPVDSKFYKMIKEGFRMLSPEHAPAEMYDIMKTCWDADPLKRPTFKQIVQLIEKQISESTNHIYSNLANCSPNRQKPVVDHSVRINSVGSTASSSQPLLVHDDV
PDGFR-α, sequence (P16234 24-1089, species assumed): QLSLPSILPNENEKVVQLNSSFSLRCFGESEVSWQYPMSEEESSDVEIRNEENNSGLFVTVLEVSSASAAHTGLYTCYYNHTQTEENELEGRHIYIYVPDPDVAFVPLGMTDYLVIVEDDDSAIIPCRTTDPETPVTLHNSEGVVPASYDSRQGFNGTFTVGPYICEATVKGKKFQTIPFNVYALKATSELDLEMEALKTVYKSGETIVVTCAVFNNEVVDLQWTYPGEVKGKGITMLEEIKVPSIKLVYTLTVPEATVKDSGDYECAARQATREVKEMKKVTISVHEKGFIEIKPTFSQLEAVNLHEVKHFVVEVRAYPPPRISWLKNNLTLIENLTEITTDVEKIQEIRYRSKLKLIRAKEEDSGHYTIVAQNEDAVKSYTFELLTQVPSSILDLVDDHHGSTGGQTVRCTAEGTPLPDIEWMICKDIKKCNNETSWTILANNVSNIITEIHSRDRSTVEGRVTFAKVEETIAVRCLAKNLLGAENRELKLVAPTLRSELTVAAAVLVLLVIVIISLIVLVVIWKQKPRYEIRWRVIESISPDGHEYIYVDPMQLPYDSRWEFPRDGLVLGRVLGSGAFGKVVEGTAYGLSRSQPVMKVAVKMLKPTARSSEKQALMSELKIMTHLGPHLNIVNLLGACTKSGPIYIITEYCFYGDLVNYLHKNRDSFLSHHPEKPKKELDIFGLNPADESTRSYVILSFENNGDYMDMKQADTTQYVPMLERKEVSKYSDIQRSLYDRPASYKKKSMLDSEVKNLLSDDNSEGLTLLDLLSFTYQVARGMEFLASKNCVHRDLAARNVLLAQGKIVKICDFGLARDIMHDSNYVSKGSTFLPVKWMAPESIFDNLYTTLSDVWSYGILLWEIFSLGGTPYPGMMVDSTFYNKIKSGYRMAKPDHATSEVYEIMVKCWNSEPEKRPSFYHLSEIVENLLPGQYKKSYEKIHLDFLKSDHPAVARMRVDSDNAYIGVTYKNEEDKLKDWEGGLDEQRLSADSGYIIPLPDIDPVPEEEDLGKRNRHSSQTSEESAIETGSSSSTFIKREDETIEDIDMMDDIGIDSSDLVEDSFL
VEGFR-2, sequence (P35968 20-1356, species assumed): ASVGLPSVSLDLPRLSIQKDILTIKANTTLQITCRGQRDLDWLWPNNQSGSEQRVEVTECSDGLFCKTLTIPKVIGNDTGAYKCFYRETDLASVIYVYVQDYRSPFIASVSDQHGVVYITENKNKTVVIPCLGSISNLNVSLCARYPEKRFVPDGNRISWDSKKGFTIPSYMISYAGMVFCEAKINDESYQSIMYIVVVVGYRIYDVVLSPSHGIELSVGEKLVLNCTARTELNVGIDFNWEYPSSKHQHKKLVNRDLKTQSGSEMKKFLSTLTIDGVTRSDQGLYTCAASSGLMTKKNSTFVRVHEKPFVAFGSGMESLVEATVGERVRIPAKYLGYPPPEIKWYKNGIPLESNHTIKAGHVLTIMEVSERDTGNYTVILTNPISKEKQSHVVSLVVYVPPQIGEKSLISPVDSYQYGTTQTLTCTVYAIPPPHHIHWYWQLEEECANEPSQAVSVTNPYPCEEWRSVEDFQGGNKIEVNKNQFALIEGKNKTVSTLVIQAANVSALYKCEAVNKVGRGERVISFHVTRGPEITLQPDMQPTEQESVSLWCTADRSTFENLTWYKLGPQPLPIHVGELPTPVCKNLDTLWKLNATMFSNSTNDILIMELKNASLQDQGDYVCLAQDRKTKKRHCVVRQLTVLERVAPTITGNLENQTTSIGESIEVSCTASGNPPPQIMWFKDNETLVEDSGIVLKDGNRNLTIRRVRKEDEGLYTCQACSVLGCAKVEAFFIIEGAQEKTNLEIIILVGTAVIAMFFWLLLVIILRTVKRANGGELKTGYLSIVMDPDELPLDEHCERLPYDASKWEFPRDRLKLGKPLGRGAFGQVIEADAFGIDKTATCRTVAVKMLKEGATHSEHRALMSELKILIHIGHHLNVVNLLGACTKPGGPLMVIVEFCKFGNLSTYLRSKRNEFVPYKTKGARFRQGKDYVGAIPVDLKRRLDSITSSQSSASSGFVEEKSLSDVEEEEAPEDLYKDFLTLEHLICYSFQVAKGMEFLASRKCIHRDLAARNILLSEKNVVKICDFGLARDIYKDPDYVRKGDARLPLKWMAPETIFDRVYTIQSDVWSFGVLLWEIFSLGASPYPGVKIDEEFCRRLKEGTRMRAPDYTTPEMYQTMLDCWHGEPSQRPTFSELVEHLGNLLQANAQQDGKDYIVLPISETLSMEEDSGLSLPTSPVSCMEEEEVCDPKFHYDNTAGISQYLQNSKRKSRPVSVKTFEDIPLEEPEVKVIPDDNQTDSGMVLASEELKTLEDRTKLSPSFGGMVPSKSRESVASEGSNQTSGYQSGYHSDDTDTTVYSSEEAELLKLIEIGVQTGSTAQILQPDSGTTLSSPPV

IC50 (VEGFR-2) [nM] | IC50 (cKIT) [nM] | IC50 (PDGFR-α) [nM] | Kp ([1]; male, brain/plasma) | Compound | IC50 (A375; Homo sapiens, A-375, 72 h) [µM] | IC50 (U251; Homo sapiens, U-251, 72 h) [µM] | IC50 (A2780; Homo sapiens, A2780, 72 h) [µM] | IC50 (A172; Homo sapiens, A 172, 72 h) [µM] | Kp ([1]; brain) | IC50 (A375; 72 h) [µM] | IC50 (U251; 72 h) [µM] | IC50 (A2780; 72 h) [µM] | IC50 (A172; 72 h) [µM]
> 10 | > 10 | < 10 | – | CS(=O)(=O)N1CCC(Cc2ccnc(Nc3ncc(-c4ccc(F)cc4)s3)c2)CC1 [Example 005, [5-(4-Fluoro-phenyl)-thiazol-2-yl]-[4-(1-methanesulfonyl-piperidin-4-ylmethyl)-pyridin-2-yl]-amine] | > 1 | > 10 | > 1 | > 1 | – | – | – | – | –
> 100 | > 10 | > 10 | – | Fc1ccc(-c2cnc(Nc3cccc(CC4CCCNCC4)n3)s2)cc1 (centres unmarked) [Example 006, (6-Azepan-4-ylmethyl-pyridin-2-yl)-[5-(4-fluoro-phenyl)-thiazol-2-yl]-amine] | ≤ 1 | > 1 | ≤ 1 | > 1 | – | – | – | – | –
> 100 | > 10 | > 10 | – | CC(=O)N1CCCC(Cc2cccc(Nc3ncc(-c4ccc(F)cc4)s3)n2)CC1 (centres unmarked) [Example 007, 1-(4-{6-[5-(4-Fluoro-phenyl)-thiazol-2-ylamino]-pyridin-2-ylmethyl}-azepan-1-yl)-ethanone] | > 1 | > 1 | > 1 | > 1 | – | – | – | – | –
> 1000 | > 10 | > 10 | – | CN1CCCC(Cc2cccc(Nc3ncc(-c4ccc(F)cc4)s3)n2)CC1 (centres unmarked) [Example 008, [5-(4-Fluoro-phenyl)-thiazol-2-yl]-[6-(1-methyl-azepan-4-ylmethyl)-pyridin-2-yl]-amine] | > 1 | > 1 | > 1 | > 10 | – | – | – | – | –
> 10 | > 10 | < 10 | – | CC(=O)N1CCOCC(Cc2ccnc(Nc3ncc(-c4ccc(F)cc4)s3)c2)C1 (centres unmarked) [Example 012, 1-(6-{2-[5-(4-Fluoro-phenyl)-thiazol-2-ylamino]-pyridin-4-ylmethyl}-[1,4]oxazepan-4-yl)-ethanone] | > 1 | > 10 | > 1 | > 1 | – | – | – | – | –
> 10 | > 100 | < 10 | – | c1ccc(-c2cnc(Nc3cc(CCC4CCCN4)ccn3)s2)cc1 (centres unmarked) [Example 015, (5-Phenyl-thiazol-2-yl)-[4-(2-pyrrolidin-2-yl-ethyl)-pyridin-2-yl]-amine] | > 1 | > 10 | > 1 | > 1 | – | – | – | – | –
> 10 | < 10 | < 10 | 0.28 | Fc1ccc(-c2cnc(Nc3cc(CC4CCCC5CNCC54)ccn3)s2)cc1 (centres unmarked) [Example 017, [5-(4-Fluoro-phenyl)-thiazol-2-yl]-[4-(octahydro-isoindol-4-ylmethyl)-pyridin-2-yl]-amine] | – | – | < 1 | > 1 | – | – | – | – | –
32 | > 100 | < 10 | – | c1ccc(-c2cnc(Nc3cc(C4CCCNC4)ccn3)s2)cc1 (centres unmarked) [Example 028, (1,2,3,4,5,6-Hexahydro-[3,4']bipyridinyl-2'-yl)-(5-phenyl-thiazol-2-yl)-amine] | > 10 | > 10 | > 1 | > 1 | – | – | – | – | –
> 100 | > 100 | > 10 | – | OCCN1CCC(c2cc(Nc3ncc(-c4ccccc4)s3)ccn2)CC1 [Example 033, 2-[4-(5-Phenyl-thiazol-2-ylamino)-3',4',5',6'-tetrahydro-2'H-[2,4']bipyridinyl-1'-yl]-ethanol] | > 10 | > 10 | > 10 | > 10 | – | – | – | – | –
> 10 | < 10 | < 10 | 1.79 | OCC(O)CN1CCC(c2ccnc(Nc3ncc(-c4ccc(F)cc4)s3)c2)CC1 (centres unmarked) [Example 034, 3-{2'-[5-(4-Fluoro-phenyl)-thiazol-2-ylamino]-3,4,5,6-tetrahydro-2H-[4,4']bipyridinyl-1-yl}-propane-1,2-diol] | – | – | > 10 | > 1 | – | – | – | – | –
> 10 | < 10 | < 10 | – | OCCN1CCC(c2ccnc(Nc3ncc(-c4ccccc4F)s3)c2)CC1 [Example 036, 2-{2'-[5-(2-Fluoro-phenyl)-thiazol-2-ylamino]-3,4,5,6-tetrahydro-2H-[4,4']bipyridinyl-1-yl}-ethanol] | > 1 | > 1 | > 1 | > 10 | – | – | – | – | –
> 10 | < 10 | < 10 | – | OCCN1CCC(c2ccnc(Nc3ncc(-c4cccc(F)c4)s3)c2)CC1 [Example 037, 2-{2'-[5-(3-Fluoro-phenyl)-thiazol-2-ylamino]-3,4,5,6-tetrahydro-2H-[4,4']bipyridinyl-1-yl}-ethanol] | > 10 | > 1 | > 1 | > 10 | – | – | – | – | –
> 10 | > 10 | < 10 | – | OCCN1CCC(c2ccnc(Nc3ncc(-c4ccc(F)c(F)c4)s3)c2)CC1 [Example 038, 2-{2'-[5-(3,4-Difluoro-phenyl)-thiazol-2-ylamino]-3,4,5,6-tetrahydro-2H-[4,4']bipyridinyl-1-yl}-ethanol] | > 1 | > 1 | > 10 | ≤ 1 | – | – | – | – | –
> 10 | > 10 | < 10 | – | OCCN1CCC(c2ccnc(Nc3ncc(-c4cc(F)cc(F)c4)s3)c2)CC1 [Example 039, 2-{2'-[5-(3,5-Difluoro-phenyl)-thiazol-2-ylamino]-3,4,5,6-tetrahydro-2H-[4,4']bipyridinyl-1-yl}-ethanol] | > 1 | > 10 | > 10 | > 1 | – | – | – | – | –

Compound | IC50 (VEGFR-2) [nM] | IC50 (cKIT) [nM] | IC50 (PDGFR-α) [nM] | Kp ([1]; male, brain/plasma) | IC50 (A375; Homo sapiens, A-375, 72 h) [µM] | IC50 (U251; Homo sapiens, U-251, 72 h) [µM] | IC50 (A2780; Homo sapiens, A2780, 72 h) [µM] | IC50 (A172; Homo sapiens, A 172, 72 h) [µM] | Kp ([1]; brain) | IC50 (A375; 72 h) [µM] | IC50 (U251; 72 h) [µM] | IC50 (A2780; 72 h) [µM] | IC50 (A172; 72 h) [µM]
c1ccc(-c2cnc(Nc3cccc(CC4CC5CCC(C4)N5)n3)s2)cc1 (centres unmarked) [Example 022, [6-(8-Aza-bicy-clo[3.2.1]oct-3-ylmethyl)-pyridin-2-yl]-(5-phenyl-thiazol-2-yl)-amine] | > 100 | > 10 | > 10 | – | ≤ 1 | > 1 | ≤ 1 | > 1 | – | – | – | – | –
COC(=O)C1CC(Cc2ccnc(Nc3ncc(-c4ccccc4)s3)c2)CC1N (centres unmarked) [Example 023, 2-Amino-4-[2-(5-phenyl-thiazol-2-ylamino)-pyridin-4-ylmethyl]-cyclopentanecar-boxylic acid methyl ester] | > 10 | < 10 | < 10 | – | – | – | > 1 | > 1 | 0.78 | – | – | – | –
[5-(4-Fluoro-phenyl)-thiazol-2-yl]-[6-(octahydro-isoindol-4-ylmethyl)-pyridin-2-yl]-amine [Example 021] | > 100 | > 10 | > 10 | – | – | – | – | – | – | > 1 | > 1 | > 1 | > 1
